Measurements: patent publication US20240246942A1, “KINASE INHIBITORS FOR THE TREATMENT OF NEURODEGENERATIVE DISEASES” (priority 2020, published 2024)

Columns and labels:
Experiment in all cases: biochemical
[1] = target: T1, panel of 374 wild-type kinases (Homo sapiens, UniProt O00238); conditions: read-out: % Enzyme Activity (relative to DMSO controls), ALK6/BMPR1B
T1 construct: purchased Reaction Biology Corporation

[2] = target: T2, panel of 374 wild-type kinases (Homo sapiens, UniProt O95819); conditions: read-out: % Enzyme Activity (relative to DMSO controls), HGK/MAP4K4
T2 construct: purchased Reaction Biology Corporation

[3] = target: T3, panel of 374 wild-type kinases (Homo sapiens, UniProt P06239); conditions: read-out: % Enzyme Activity (relative to DMSO controls), LCK
T3 construct: purchased Reaction Biology Corporation

[4] = target: T4, panel of 374 wild-type kinases (Homo sapiens, UniProt P07947); conditions: read-out: % Enzyme Activity (relative to DMSO controls), kinase YES/YES1
T4 construct: purchased Reaction Biology Corporation
T4 sequence (P07947 whole entry): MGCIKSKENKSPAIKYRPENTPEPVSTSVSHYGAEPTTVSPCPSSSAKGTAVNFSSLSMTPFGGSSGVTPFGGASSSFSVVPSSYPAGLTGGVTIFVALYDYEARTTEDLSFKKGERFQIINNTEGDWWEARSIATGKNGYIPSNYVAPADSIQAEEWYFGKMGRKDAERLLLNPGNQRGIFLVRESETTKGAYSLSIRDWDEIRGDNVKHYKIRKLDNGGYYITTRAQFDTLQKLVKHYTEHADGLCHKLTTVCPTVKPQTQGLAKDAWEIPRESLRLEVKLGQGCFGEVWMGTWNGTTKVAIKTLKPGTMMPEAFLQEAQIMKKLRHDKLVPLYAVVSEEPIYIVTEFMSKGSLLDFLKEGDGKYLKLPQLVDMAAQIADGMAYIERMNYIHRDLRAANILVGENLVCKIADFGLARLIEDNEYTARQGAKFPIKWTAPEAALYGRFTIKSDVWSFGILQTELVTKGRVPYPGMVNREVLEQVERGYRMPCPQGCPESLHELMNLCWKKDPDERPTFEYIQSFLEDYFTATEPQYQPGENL

[5] = target: T5, panel of 374 wild-type kinases (Homo sapiens, UniProt P17948); conditions: read-out: % Enzyme Activity (relative to DMSO controls), FLT1/VEGFR1
T5 construct: purchased Reaction Biology Corporation
T5 sequence (P17948 27-1338): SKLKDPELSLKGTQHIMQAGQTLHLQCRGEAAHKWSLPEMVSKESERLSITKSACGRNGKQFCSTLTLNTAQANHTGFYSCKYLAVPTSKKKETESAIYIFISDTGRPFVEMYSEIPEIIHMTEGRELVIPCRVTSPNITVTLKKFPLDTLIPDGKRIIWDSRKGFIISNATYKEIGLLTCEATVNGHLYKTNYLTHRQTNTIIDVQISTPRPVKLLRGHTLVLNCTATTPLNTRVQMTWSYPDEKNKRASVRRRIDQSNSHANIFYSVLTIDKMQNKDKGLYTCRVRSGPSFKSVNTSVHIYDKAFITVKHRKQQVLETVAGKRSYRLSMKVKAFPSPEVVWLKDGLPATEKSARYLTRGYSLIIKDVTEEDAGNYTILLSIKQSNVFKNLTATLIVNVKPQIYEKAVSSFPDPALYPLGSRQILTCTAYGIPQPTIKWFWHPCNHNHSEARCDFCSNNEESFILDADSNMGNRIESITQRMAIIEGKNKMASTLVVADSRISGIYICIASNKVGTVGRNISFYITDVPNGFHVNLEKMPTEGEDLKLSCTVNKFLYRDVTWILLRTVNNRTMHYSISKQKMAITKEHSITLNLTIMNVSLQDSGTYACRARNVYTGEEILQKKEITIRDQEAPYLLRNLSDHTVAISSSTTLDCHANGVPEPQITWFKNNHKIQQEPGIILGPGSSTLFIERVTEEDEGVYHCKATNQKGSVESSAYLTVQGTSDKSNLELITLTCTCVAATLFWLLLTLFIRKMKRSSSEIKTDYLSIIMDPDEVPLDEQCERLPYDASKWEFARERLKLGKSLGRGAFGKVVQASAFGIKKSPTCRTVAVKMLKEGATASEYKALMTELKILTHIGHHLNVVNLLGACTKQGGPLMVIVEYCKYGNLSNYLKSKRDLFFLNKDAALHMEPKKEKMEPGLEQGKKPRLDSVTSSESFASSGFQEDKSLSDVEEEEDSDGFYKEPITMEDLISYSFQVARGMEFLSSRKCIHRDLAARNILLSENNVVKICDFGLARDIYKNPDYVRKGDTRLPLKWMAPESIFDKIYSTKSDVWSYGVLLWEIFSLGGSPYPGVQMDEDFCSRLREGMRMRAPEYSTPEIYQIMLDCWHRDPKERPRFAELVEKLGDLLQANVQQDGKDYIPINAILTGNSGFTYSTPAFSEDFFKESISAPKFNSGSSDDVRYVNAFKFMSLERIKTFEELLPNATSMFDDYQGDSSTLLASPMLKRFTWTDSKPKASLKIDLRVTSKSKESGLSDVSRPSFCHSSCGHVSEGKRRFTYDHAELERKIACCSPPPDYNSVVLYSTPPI

[6] = target: T6, panel of 374 wild-type kinases (Homo sapiens, UniProt P22455); conditions: for remaining activity at 5 µM: read-out: % Enzyme Activity (relative to DMSO controls), FGFR4
T6 construct: purchased Reaction Biology Corporation

[7] = target: T7, panel of 374 wild-type kinases (Homo sapiens, UniProt P27448); conditions: read-out: % Enzyme Activity (relative to DMSO controls), MARK3
T7 construct: purchased Reaction Biology Corporation

[8] = target: T8, panel of 374 wild-type kinases (Homo sapiens, UniProt P29376); conditions: kinase TYK1/LTK, read-out: % Enzyme Activity (relative to DMSO controls)
T8 construct: purchased Reaction Biology Corporation
T8 sequence (P29376 17-864): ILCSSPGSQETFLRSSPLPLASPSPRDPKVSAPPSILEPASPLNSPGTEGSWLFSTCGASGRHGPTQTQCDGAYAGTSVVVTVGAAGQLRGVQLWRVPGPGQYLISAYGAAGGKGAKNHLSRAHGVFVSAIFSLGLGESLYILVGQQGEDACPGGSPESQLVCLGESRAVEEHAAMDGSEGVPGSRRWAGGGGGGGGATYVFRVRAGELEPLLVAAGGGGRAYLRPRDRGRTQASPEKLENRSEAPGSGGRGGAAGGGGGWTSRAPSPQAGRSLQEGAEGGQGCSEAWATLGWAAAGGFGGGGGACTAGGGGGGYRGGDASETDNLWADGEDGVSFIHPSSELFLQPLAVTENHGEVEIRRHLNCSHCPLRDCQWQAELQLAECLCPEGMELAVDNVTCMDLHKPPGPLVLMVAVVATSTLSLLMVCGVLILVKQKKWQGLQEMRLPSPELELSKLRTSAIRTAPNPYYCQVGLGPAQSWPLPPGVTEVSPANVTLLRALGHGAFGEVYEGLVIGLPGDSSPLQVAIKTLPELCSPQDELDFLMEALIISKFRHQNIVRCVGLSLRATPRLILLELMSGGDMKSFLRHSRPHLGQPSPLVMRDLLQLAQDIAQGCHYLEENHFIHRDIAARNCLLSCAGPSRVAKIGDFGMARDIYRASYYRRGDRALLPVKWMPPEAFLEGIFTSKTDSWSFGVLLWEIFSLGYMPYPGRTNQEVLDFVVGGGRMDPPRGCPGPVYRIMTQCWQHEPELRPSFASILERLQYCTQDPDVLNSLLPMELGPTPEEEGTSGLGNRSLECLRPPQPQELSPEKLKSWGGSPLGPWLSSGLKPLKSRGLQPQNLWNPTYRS

[9] = target: T9, panel of 374 wild-type kinases (Homo sapiens, UniProt P51956); conditions: read-out: % Enzyme Activity (relative to DMSO controls), NEK3
T9 construct: purchased Reaction Biology Corporation
T9 sequence (P51956 1-506): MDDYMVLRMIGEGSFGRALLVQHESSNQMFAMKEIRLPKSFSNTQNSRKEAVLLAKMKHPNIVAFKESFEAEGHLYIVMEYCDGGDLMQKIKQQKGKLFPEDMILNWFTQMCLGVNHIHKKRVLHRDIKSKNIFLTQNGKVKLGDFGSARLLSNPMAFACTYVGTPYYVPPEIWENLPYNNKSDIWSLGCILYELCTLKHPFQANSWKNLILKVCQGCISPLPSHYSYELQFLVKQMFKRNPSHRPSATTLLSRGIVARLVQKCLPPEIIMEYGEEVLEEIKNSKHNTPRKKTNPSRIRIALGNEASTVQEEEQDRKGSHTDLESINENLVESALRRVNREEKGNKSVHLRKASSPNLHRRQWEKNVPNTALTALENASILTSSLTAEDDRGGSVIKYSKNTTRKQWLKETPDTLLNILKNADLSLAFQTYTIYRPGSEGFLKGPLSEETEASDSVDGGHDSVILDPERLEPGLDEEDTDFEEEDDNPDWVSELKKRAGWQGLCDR

[10] = target: T10, panel of 374 wild-type kinases (Homo sapiens, UniProt Q14680); conditions: read-out: % Enzyme Activity (relative to DMSO controls), MELK
T10 construct: purchased Reaction Biology Corporation

[11] = target: T11, panel of 374 wild-type kinases (Homo sapiens, UniProt Q15569); conditions: read-out: % Enzyme Activity (relative to DMSO controls), kinase TESK1
T11 construct: purchased Reaction Biology Corporation

[12] = target: T12, panel of 374 wild-type kinases (Homo sapiens, UniProt Q16539); conditions: P38a/MAPK14, read-out: % Enzyme Activity (relative to DMSO controls)
T12 construct: purchased Reaction Biology Corporation
T12 sequence (Q16539 whole entry): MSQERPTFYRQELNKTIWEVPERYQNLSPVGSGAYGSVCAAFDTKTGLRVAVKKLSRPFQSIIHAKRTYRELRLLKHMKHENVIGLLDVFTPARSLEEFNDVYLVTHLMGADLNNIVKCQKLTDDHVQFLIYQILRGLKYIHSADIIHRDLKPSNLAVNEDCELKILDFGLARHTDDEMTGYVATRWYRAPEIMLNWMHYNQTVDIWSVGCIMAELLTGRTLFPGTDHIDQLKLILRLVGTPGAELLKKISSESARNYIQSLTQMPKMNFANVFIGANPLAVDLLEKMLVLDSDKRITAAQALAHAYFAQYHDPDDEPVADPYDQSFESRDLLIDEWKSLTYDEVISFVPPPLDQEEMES

[13] = target: T13, panel of 374 wild-type kinases (Homo sapiens, UniProt Q52WX2); conditions: read-out: % Enzyme Activity (relative to DMSO controls), kinase SBK1
T13 construct: purchased Reaction Biology Corporation

[14] = target: T14, panel of 374 wild-type kinases (Homo sapiens, UniProt Q8N5S9); conditions: read-out: % Enzyme Activity (relative to DMSO controls), CAMKK1
T14 construct: purchased Reaction Biology Corporation
T14 sequence (Q8N5S9 whole entry): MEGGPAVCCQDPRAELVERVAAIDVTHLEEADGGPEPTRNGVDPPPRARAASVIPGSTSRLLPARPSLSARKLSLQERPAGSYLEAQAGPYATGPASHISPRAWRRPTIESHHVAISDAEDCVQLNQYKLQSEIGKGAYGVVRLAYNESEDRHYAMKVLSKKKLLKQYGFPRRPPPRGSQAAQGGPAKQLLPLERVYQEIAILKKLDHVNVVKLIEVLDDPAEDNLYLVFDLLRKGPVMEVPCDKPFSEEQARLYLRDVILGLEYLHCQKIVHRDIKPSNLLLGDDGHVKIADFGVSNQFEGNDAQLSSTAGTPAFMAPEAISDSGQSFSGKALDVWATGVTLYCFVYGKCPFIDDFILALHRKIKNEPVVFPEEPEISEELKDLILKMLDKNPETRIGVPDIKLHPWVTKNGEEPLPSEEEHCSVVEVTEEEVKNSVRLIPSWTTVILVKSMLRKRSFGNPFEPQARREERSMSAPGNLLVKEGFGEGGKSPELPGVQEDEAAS

[15] = target: T15, panel of 374 wild-type kinases (Homo sapiens, UniProt Q8TD08); conditions: read-out: % Enzyme Activity (relative to DMSO controls), ERK7/MAPK15
T15 construct: purchased Reaction Biology Corporation
T15 sequence (Q8TD08 1-544): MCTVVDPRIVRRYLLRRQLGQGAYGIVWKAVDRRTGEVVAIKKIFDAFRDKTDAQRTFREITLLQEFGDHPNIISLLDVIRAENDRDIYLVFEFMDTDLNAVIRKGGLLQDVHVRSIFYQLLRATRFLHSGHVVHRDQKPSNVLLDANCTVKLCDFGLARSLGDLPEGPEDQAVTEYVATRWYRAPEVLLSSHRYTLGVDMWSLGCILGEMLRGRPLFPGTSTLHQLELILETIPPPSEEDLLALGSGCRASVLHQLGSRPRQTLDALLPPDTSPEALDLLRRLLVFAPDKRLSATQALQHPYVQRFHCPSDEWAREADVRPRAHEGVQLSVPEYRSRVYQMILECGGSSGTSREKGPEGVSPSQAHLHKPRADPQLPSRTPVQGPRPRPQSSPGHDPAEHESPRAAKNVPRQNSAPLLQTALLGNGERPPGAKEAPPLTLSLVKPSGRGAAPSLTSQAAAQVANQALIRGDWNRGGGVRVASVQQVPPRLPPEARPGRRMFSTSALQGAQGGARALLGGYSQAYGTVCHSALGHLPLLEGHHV

[16] = target: T16, panel of 374 wild-type kinases (Homo sapiens, UniProt Q9NQU5); conditions: read-out: % Enzyme Activity (relative to DMSO controls), kinase PAK6
T16 construct: purchased Reaction Biology Corporation
T16 sequence (Q9NQU5 whole entry): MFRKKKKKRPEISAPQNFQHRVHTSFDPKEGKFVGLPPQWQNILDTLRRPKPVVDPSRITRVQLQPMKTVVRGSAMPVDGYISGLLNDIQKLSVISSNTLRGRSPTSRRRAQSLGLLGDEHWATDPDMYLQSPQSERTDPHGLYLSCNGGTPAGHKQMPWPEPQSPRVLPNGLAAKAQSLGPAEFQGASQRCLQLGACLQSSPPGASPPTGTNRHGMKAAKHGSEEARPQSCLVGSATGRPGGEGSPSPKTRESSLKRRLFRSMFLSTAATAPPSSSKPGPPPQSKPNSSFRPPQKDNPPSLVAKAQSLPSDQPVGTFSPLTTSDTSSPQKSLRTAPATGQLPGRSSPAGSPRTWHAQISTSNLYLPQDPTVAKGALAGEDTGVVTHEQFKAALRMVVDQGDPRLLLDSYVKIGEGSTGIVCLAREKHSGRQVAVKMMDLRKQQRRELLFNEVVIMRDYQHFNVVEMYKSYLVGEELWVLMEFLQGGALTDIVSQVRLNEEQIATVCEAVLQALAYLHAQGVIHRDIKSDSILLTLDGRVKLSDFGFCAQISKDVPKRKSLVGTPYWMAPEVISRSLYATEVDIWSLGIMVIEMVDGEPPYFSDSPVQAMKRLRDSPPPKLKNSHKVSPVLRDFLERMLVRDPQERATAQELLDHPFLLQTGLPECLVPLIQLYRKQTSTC

[17] = target: T17, panel of 374 wild-type kinases (Homo sapiens, UniProt Q9NYY3); conditions: read-out: % Enzyme Activity (relative to DMSO controls), kinase PLK2
T17 construct: purchased Reaction Biology Corporation

T1 sequence (O00238 14-502): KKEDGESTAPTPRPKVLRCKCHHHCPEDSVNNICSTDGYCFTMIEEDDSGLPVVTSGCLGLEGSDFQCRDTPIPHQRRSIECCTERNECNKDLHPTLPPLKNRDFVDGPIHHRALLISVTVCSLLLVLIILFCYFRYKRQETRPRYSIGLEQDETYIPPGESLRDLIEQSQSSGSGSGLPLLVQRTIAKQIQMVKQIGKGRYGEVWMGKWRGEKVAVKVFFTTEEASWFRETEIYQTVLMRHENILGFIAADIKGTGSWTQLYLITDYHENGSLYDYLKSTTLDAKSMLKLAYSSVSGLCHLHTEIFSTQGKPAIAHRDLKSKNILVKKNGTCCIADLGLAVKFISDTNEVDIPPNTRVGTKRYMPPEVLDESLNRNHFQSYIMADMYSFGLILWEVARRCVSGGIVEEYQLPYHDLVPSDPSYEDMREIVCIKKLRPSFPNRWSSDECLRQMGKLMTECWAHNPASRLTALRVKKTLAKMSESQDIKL

| Compound | remaining activity at 5 µM [1] | remaining activity at 5 µM [2] | remaining activity at 5 µM [3] | remaining activity at 5 µM [4] | remaining activity at 5 µM [5] | remaining activity at 5 µM [6] | remaining activity at 5 µM [7] | remaining activity at 5 µM [8] | remaining activity at 5 µM [9] | remaining activity at 5 µM [10] | remaining activity at 5 µM [11] | remaining activity at 5 µM [12] | remaining activity at 5 µM [13] | remaining activity at 5 µM [14] | remaining activity at 5 µM [15] | remaining activity at 5 µM [16] | remaining activity at 5 µM [17] | also measured |
| --- | --- | --- | --- | --- | --- | --- | --- | --- | --- | --- | --- | --- | --- | --- | --- | --- | --- | --- |
| O=C(Nc1cnn(-c2csc(C(=O)NC3COC3)c2)c1)Nc1ccccc1Cl [Compound 17, 4-(4-(3-(2-chlorophenyl)ureido)-1H-pyrazol-1-yl)-N-(oxetan-3-yl)thiophene-2-carboxamide] | 109% | 81.1% | 99.1% | 96.5% | 101% | 88.2% | 98.2% | 99.2% | 103% | 48.7% | 101% | 142% | 99.1% | 130% | 140% | 131% | 86% | – |
| Cc1sc(C(=O)NC2COC2)cc1-n1cc(NC(=O)Nc2c(F)cccc2Cl)cn1 [Compound 27, 4-(4-(3-(2-chloro-6-fluorophenyl)ureido)-1H-pyrazol-1-yl)-5-methyl-N-(oxetan-3-yl)thiophene-2-carboxamide] | – | – | – | – | – | – | – | – | – | – | – | – | – | – | – | – | – | remaining activity at 10 µM ([1]; 10 uM): 104%; remaining activity at 10 µM ([2]; 10 uM): 93.4%; remaining activity at 10 µM ([3]; 10 uM): 46.5%; remaining activity at 10 µM ([4]; 10 uM): 81.4%; remaining activity at 10 µM ([5]; 10 uM): 84.1%; remaining activity at 10 µM ([6]; FGFR4, 10 uM, read-out: % Enzyme Activity (relative to DMSO controls)): 96.8%; remaining activity at 10 µM ([7]; 10 uM): 102%; remaining activity at 10 µM ([8]; 10 uM): 114%; remaining activity at 10 µM ([9]; 10 uM): 87.5%; remaining activity at 10 µM ([10]; 10 uM): 103%; remaining activity at 10 µM ([11]; 10 uM): 88.7%; remaining activity at 10 µM ([12]; 10 uM): 93.2%; remaining activity at 10 µM ([13]; 10 uM): 87.5%; remaining activity at 10 µM ([14]; 10 uM): 121%; remaining activity at 10 µM ([15]; 10 uM): 103%; remaining activity at 10 µM ([16]; 10 uM): 99.9%; remaining activity at 10 µM ([17]; 10 uM): 95.2% |
| O=C(Nc1cnn(-c2csc(C(=O)NC3COC3)c2)c1)Nc1c(F)cccc1Cl [Compound 25, 4-(4-(3-(2-chloro-6-fluorophenyl)ureido)-1H-pyrazol-1-yl)-N-(oxetan-3-yl)thiophene-2-carboxamide] | 114% | 90.4% | 94.2% | 91% | 86.1% | 99.6% | 99.3% | 92.2% | 87.2% | 61.4% | 91% | 105% | 97.7% | 93.7% | 108% | 92.9% | 100% | – |
